Experimental data from patent publication US5034311A, “Photographic elements containing release compounds I” (Eastman Kodak Company, priority 1990, dated 1991).

assay: Rate of tetrazole inhibitor release from timing group compounds in micellar solution (HPLC of free inhibitor and residual timing group compound); assay type: physicochemical; details: inhibitor release, pH 13.5, (+10%)
Protocol: Rates of tetrazole release were measured for several timing group compounds which are representative of fragments that are generated by reaction of a coupler of this invention with oxidized developer during photographic processing. These solution measurements are a useful indication of photographic performance. Lower values of inhibitor release half-lives in solution correlate with greater development inhibition effects in film.
For a given measurement, 12.5 μmol of the timing group compound was dissolved in 3.2 mL of reduced Triton X-100 surfactant plus one drop glacial acetic acid plus approximately 5 mL methylene chloride (to facilitate dissolution of the timing group compound in surfactant). After methylene chloride was evaporated under partial vacuum, water (approximately 15 mL) was added and the mixture was vigorously agitated with a vortex mixer to create micelles. This miscellar solution was then diluted to 25 mL with water and mixed again. Inhibitor release kinetics were initiated by mixing 2 mL of the above micellar solution with an equal volume of an aqueous potassium hydroxide solution (0.75 mol KOH/L), producing a reaction mixture with a pH of about 13.5. At intervals, portions of the reaction mixture were quenched by the addition of 1 mL 30% aqueous acetic acid. The quenched mixture was then analyzed by high performance liquid chromatography to determine the concentrations of free inhibitor and residual timing group compound. First-order reaction rate constants were calculated from these concentration versus time data, and the reaction half-life, t1/2, was calculated with the expression t1/2 =0.693/k, where k is the observed rate constant. […] In the following table -INH signifies the inhibitor of the structure

| SMILES | Half-Life at pH 13.5 |
| --- | --- |
| CCCCCCCOc1ccc(-c2nnn(C3CCCc4cc(O)ccc43)n2)cc1 (stereo not drawn) | 15 sec |
| CCCCCCCOc1ccc(-c2nnn(C3c4ccc(O)cc4CCC3(C)C)n2)cc1 (stereo not drawn) | 100 sec |
| CCCCCCCOc1ccc(-c2nnn(C3CCCCc4cc(O)ccc43)n2)cc1 (stereo not drawn) | 250 sec |
| CCCCCCCOc1ccc(-c2nnn(C3CCOc4cc(O)ccc43)n2)cc1 (stereo not drawn) | 9 sec |
| CCCCCCCOc1ccc(-c2nnn(C3CCc4cc(O)ccc43)n2)cc1 (stereo not drawn) | 30 sec |
| CCCCCCCOc1ccc(-c2nnn(Cc3ccc(O)cc3)n2)cc1 [reference compound] | 29,000 sec |
